Measured values as given in patent US9718790B2, “Triazine derivative and pharmaceutical composition having an analgesic activity comprising the same” (SHIONOGI & CO., LTD., priority 2010, dated 2017).

Target: human P2X3 receptor (Homo sapiens (Human), UniProt P56373)
Test: Evaluation of human P2X3 receptor inhibitory activity (Fluo-3 calcium fluorescence, FDSS 3000, ATP stimulation);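 note: stimulus was 50 nM ATP with fluorescence followed for 3 min, and the response per well was peak post-ATP fluorescence divided by the reading at measurement start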
Format: cell-based
Conditions: C6BU-1 cells stably expressing human P2X3 receptor

Chain of human P2X3 receptor (P56373 whole entry): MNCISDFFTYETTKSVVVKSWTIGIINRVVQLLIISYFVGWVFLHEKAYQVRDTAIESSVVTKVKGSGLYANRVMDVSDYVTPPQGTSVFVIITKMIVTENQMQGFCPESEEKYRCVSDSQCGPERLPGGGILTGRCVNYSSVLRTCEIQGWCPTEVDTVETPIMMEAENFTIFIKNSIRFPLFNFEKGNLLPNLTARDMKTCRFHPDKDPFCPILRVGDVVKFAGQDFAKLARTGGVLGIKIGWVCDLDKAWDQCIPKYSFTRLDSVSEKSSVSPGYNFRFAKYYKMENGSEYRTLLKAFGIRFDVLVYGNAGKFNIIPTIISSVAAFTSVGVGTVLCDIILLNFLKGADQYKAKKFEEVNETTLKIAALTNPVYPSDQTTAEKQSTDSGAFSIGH

Compound	IC50
COC(=O)[C@@H](C)Cn1c(=O)[nH]/c(=N\c2ccc(C=C(C)C)nc2)n(Cc2ccc(C)cc2)c1=O [Compound I-1301]	514 nM
COc1cc(/N=c2\[nH]c(=O)n(CC3COC(C)(C)OC3)c(=O)n2Cc2ccc(Cl)cc2)ccc1OC(C)C [Compound I-1984]	9 nM
O=c1[nH]/c(=N\c2ccc(Oc3ccnc(CO)c3)cc2)n(Cc2ccc(Cl)cc2)c(=O)n1CCO [Compound I-1986]	16 nM
COc1cc(/N=c2\[nH]c(=O)n(CCC(=O)O)c(=O)n2Cc2ccc(C)cc2)ccc1CC(C)C [Compound I-1362]	54 nM
COC(=O)[C@@H](C)Cn1c(=O)[nH]/c(=N\c2ccc(C3CC3)cc2)n(Cc2ccc(C)cc2)c1=O [Compound I-1460]	272 nM
Cc1ccc(Cn2c(=O)n([C@H](C)[C@H](C)C(=O)O)c(=O)[nH]/c2=N\c2ccc(CC(C)C)c(Cl)c2)cc1 [Compound I-1444]	4 nM
C[C@@H](Cn1c(=O)[nH]/c(=N\c2ccc3ncccc3c2)n(Cc2ccc(Cl)cc2)c1=O)C(=O)O [Compound I-1346]	812 nM
COc1ccc(/N=c2\[nH]c(=O)n(C[C@H](C)C(=O)O)c(=O)n2Cc2ccc(Cl)cc2)cc1C(F)(F)F [Compound I-0797]	701 nM
CC(C)Oc1ccc(/N=c2\[nH]c(=O)n(CC(C)(C)C(=O)O)c(=O)n2Cc2ccc(Cl)cc2)cc1CO [Compound I-1431]	242 nM
CC[C@@H](CC(=O)O)n1c(=O)[nH]/c(=N\c2ccc(OC(C)C)c(C)c2)n(Cc2ccc(Cl)cc2)c1=O [Compound I-0798]	465 nM
Cc1cc2cc(/N=c3\[nH]c(=O)n(CCCO)c(=O)n3Cc3ccc(Cl)cc3)ccc2o1 [Compound I-2027]	17 nM
Cc1nc2ccc(/N=c3\[nH]c(=O)n(C[C@H](O)CO)c(=O)n3CC3CCC(C)CC3)cc2s1 (some centres unmarked) [Compound I-2097]	5 nM
CCn1c(=O)[nH]/c(=N\c2ccc(Oc3cncc(C(N)=O)c3)cc2)n(Cc2ccc(Cl)cc2)c1=O [Compound I-1996]	4 nM
CC(C)Oc1ccc(/N=c2\[nH]c(=O)n(CC(=O)N3CCNCC3)c(=O)n2Cc2ccc(Cl)cc2)cc1Cl [Compound I-0742]	38 nM
Cc1[nH]c2ccc(/N=c3\[nH]c(=O)n(CCOC4CCCCO4)c(=O)n3Cc3ccc(Cl)cc3)cc2c1C (centres unmarked) [Compound I-2038]	13 nM
COc1ncccc1Cn1c(=O)[nH]/c(=N\c2ccc(OC(C)C)c(F)c2)n(Cc2ccc(Cl)cc2)c1=O [Compound I-0683]	9 nM
COC(=O)[C@@H](C)Cn1c(=O)[nH]/c(=N\c2ccc3nc(C)sc3c2)n(Cc2ccc(Cl)cc2)c1=O [Compound I-1321]	7 nM
COC(=O)[C@@H](C)[C@@H](C)n1c(=O)[nH]/c(=N\c2ccc(CC(C)C)c(Cl)c2)n(Cc2ccc(Cl)cc2)c1=O [Compound I-1438]	63 nM
CCOc1cc(F)c(/N=c2\[nH]c(=O)n(CCC(=O)O)c(=O)n2Cc2ccc(C)cc2)c(F)c1 [Compound I-2053]	952 nM
COC(=O)[C@H](C)[C@H](C)n1c(=O)[nH]/c(=N\c2ccc(OCC(C)C)cc2)n(Cc2ccc(C)cc2)c1=O [Compound I-1331]	56 nM
COC(=O)CCCCn1c(=O)[nH]/c(=N\c2ccc(OC(C)C)c(Cl)c2)n(Cc2ccc(Cl)cc2)c1=O [Compound I-2182]	3 nM
Cc1cc(/N=c2\[nH]c(=O)n(C(C)(C)CC(=O)O)c(=O)n2Cc2ccc(Cl)cc2)ccc1OC(C)C [Compound I-0804]	132 nM

Same assay, conditions: C6BU-1 cells stably expressing human P2X3 receptor, Fluo-3 fluorescence, FDSS 3000

Compound	IC50
COC(=O)CCn1c(=O)[nH]/c(=N\c2cc(-c3ccncc3)c[nH]c2=O)n(Cc2ccc(C)cc2)c1=O [Compound I-1893]	178 nM
C[C@H](Oc1ccc(/N=c2\[nH]c(=O)n(C[C@H](C)C(=O)O)c(=O)n2Cc2ccc(Cl)cc2)cc1)C(F)(F)F [Compound I-0933]	82 nM
COC(=O)[C@@H](C)Cn1c(=O)[nH]/c(=N\c2ccc(N3CCCC3)cc2)n(Cc2ccc(C)cc2)c1=O [Compound I-1086]	291 nM
CCOc1ccc(/N=c2\[nH]c(=O)n([C@@H](C)[C@@H](C)C(=O)OC)c(=O)n2Cc2ccc(C)cc2)cc1Cl [Compound I-0966]	17 nM
CCc1oc2ccc(/N=c3\[nH]c(=O)n(CCNC(C)=O)c(=O)n3Cc3ccc(Cl)cc3)cc2c1C [Compound I-1566]	8 nM
CCCc1nc2ccc(/N=c3\[nH]c(=O)n(CCC(=O)OCC)c(=O)n3Cc3ccc(C)cc3)cc2s1 [Compound I-1558]	8 nM
Cc1cc(/N=c2\[nH]c(=O)n(CC3CN(C(=O)OC(C)(C)C)C3)c(=O)n2Cc2ccc(Cl)cc2)ccc1OC(C)C [Compound I-1640]	13 nM
CCc1oc2ccc(/N=c3\[nH]c(=O)n(CC4(C)COC(C)(C)OC4)c(=O)n3Cc3ccc(Cl)cc3)cc2c1C [Compound I-1636]	9 nM
CCOC(=O)CN1CC(n2c(=O)[nH]/c(=N\c3ccc(OC(C)C)c(C)c3)n(Cc3ccc(Cl)cc3)c2=O)C1 [Compound I-1741]	55 nM
CSc1cccc(/N=c2\[nH]c(=O)n(C[C@H](C)C(=O)O)c(=O)n2Cc2ccc(Cl)cc2)c1 [Compound I-1152]	110 nM
CCc1nc2ccc(/N=c3\[nH]c(=O)n(CC(=O)NC)c(=O)n3Cc3ccc(Cl)cc3)cc2s1 [Compound I-1807]	6 nM
CC(=O)NCCn1c(=O)[nH]/c(=N\c2ccc(O[C@H](C)C(F)(F)F)cc2)n(Cc2ccc(Cl)cc2)c1=O [Compound I-1617]	27 nM
CNC(=O)c1cc(Oc2ccc(/N=c3\[nH]c(=O)[nH]c(=O)n3Cc3ccc(Cl)cc3)cc2)ccn1 [Compound I-1846]	15 nM
COC(=O)[C@@H](C)Cn1c(=O)nc(Cc2ccccc2C)n(Cc2ccc(Cl)cc2)c1=O [Compound I-1865]	357 nM
C[C@@H](C(=O)O)[C@H](C)n1c(=O)[nH]/c(=N\c2ccc3c(c2)CCN3S(C)(=O)=O)n(Cc2ccc(Cl)cc2)c1=O [Compound I-1774]	255 nM
CCOC(=O)CCn1c(=O)[nH]/c(=N\c2ccc(O[C@H](C)CC)cc2)n(Cc2ccc(C)cc2)c1=O [Compound I-1018]	8 nM
CCC[C@@H](C)Oc1ccc(/N=c2\[nH]c(=O)n(C[C@H](C)C(=O)O)c(=O)n2Cc2ccc(C)cc2)cc1 [Compound I-1061]	174 nM
Cc1ccc(Cn2c(=O)n(C[C@H](C)C(=O)O)c(=O)[nH]/c2=N\c2ccc(OC(F)F)cc2)cc1 [Compound I-1161]	148 nM
CCOC(=O)CCCn1c(=O)[nH]/c(=N\c2ccc3oc(CC)c(C)c3c2)n(Cc2ccc(C)cc2)c1=O [Compound I-1627]	9 nM

Same assay, conditions: human P2X3 receptor, Test Example 1

Compound	IC50
COC(=O)[C@@H](C)Cn1c(=O)[nH]/c(=N\c2ccc(CC(C)(C)F)c(Cl)c2)n(Cc2ccc(C)cc2)c1=O [Compound I-1528]	32 nM
CCOC(=O)CCn1c(=O)[nH]/c(=N\c2ccc(Oc3ccon3)cc2)n(Cc2ccc(Cl)cc2)c1=O [Compound I-2434]	4 nM
CCOC(=O)CN(C(=O)OC(C)(C)C)c1cc(Oc2ccc(/N=c3\[nH]c(=O)n(CC)c(=O)n3Cc3ccc(Cl)cc3)cc2)ccn1 [Compound I-2540]	104 nM
COC(=O)[C@@H](C)Cn1c(=O)[nH]/c(=N\c2ccc(OC(C)C)c(C)c2)n(Cc2ccc(Br)cc2)c1=O [Compound I-0865]	17 nM
CNC(=O)Cn1c(=O)[nH]/c(=N\c2ccc(Oc3ncc(C)s3)cc2)n(Cc2ccc(Cl)cc2)c1=O [Compound I-2648]	14 nM
O=C(Cn1c(=O)[nH]/c(=N\c2ccc(Oc3cccc(F)n3)cc2)n(Cc2ccc(Cl)cc2)c1=O)NCCO [Compound I-2679]	5 nM
CCOc1ccc(/N=c2\[nH]c(=O)n([C@H](C)CC(=O)OC)c(=O)n2Cc2ccc(C)cc2)cc1Cl [Compound I-0876]	23 nM
Cn1c(=O)[nH]/c(=N\c2ccc(Oc3cccc(C(N)=O)n3)cc2)n(C[C@H]2CC[C@H](C)CC2)c1=O [Compound I-2463]	3 nM
COC(=O)C1(Cn2c(=O)[nH]/c(=N\c3ccc(OC(C)C)c(C)c3)n(Cc3ccc(Cl)cc3)c2=O)COC1 [Compound I-1480]	2 nM
CCn1c(=O)[nH]/c(=N\c2ccc(Oc3cccnn3)cc2)n(Cc2ccc(Cl)cc2)c1=O [Compound I-2611]	14 nM
CCn1c(=O)[nH]/c(=N\c2ccc(Oc3ncccn3)cc2)n(Cc2ccc(Cl)cc2)c1=O [Compound I-2362]	10 nM
CC[C@@H](C)Oc1ccc(/N=c2\[nH]c(=O)n(C[C@H](C)C(=O)OC)c(=O)n2Cc2ccc(C)cc2)cc1 [Compound I-0824]	18 nM
N#Cc1ccc(Oc2ccc(/N=c3\[nH]c(=O)n(CCO)c(=O)n3Cc3ccc(Cl)cc3)cc2)cc1 [Compound I-2545]	7 nM
CCn1c(=O)[nH]/c(=N\c2ccc(Oc3ccc(C(=O)O)cn3)cc2)n(Cc2ccc(Cl)cc2)c1=O [Compound I-2320]	6 nM
Cn1c(=O)[nH]/c(=N\c2ccc(Oc3ccc(C(=O)O)nn3)cc2)n(Cc2ccc(Cl)cc2)c1=O [Compound I-2381]	54 nM
Cn1ccc(Oc2ccc(/N=c3\[nH]c(=O)n(C[C@H](O)CO)c(=O)n3Cc3ccc(Cl)cc3)cc2)n1 [Compound I-2412]	84 nM
CCn1c(=O)[nH]/c(=N\c2ccc(Oc3cccc(C(=O)NC#N)n3)cc2)n(Cc2ccc(Cl)cc2)c1=O [Compound I-2593]	1 nM
Cc1ccc(Cn2c(=O)n(C)c(=O)[nH]/c2=N\c2ccc(Oc3cccc(C(=O)O)n3)cc2)cc1 [Compound I-2268]	6 nM
CCn1c(=O)[nH]/c(=N\c2ccc(Oc3ncc(C(=O)OC)cn3)cc2)n(Cc2ccc(Cl)cc2)c1=O [Compound I-2322]	6 nM
CNC(=O)Cn1c(=O)[nH]/c(=N\c2ccc(Oc3nc(C)ns3)cc2)n(Cc2ccc(Cl)cc2)c1=O [Compound I-2581]	5 nM
COC(=O)[C@@H](C)Cn1c(=O)[nH]/c(=N\c2ccc(OCC(F)F)cc2)n(Cc2ccc(C)cc2)c1=O [Compound I-0847]	31 nM
CCn1c(=O)[nH]/c(=N\c2ccc(Oc3ccc(C(=O)OC)nn3)cc2)n(C[C@H]2CC[C@H](C)CC2)c1=O [Compound I-2701]	1 nM
COc1cc(/N=c2\[nH]c(=O)n(C)c(=O)n2Cc2ccc(Cl)cc2)ccc1Oc1cccc(C(=O)O)n1 [Compound I-2424]	20 nM
COC(=O)c1cncc(Oc2ccc(/N=c3\[nH]c(=O)n(C)c(=O)n3Cc3ccc(Cl)cc3)cc2)n1 [Compound I-2469]	19 nM
